System: hippocampal slice cultures
Assay: Impedance measurement (TIECIR) of organotypic hippocampal slice cultures after induction of tau-hyperphosphorylation
Assay type: cell-based
Details: 1 μM, hippocampal slices of 8-9 day old rats, 7 days in culture, 100 Hz to 1 MHz, 10 mV, stable for 9 hours before application, remained small within the next seven hours
Description: The impedance changes caused by tau-hyperphosphorylation (FIG. 11) of hippocampal slices that were prepared from 8-9 day old rats were measured using the device according to the present invention. Six to eight hippocampal slices of 400 μm thickness were places on a aluminiumoxyd membrane (0.02 μm pore size) of a 6-well recording chamber and cultured for 7 days in 50% minimum essential media, 25% Hank's media, and 25% horse serum supplemented with L-glutamine and antibiotics. Impedance recording was performed by using a Agilent 4294A impedance analyser (Agilent Technologies Deutschland GmbH, Germany) in combination with a multiplexer (NI-SCXI-1153, National Instruments, USA).
24 hours before impedance measurement was carried out, medium replaced by fresh culture medium. The impedance was recorded in a frequency range of 100 Hz to 1 MHz by applying a voltage of 10 mV across a large top electrode and 60 substrate integrated bottom electrodes of 30 μm in diameter.
For measuring hippocampal slice cultures, the TIECIR method was used. Organotypic slice cultures were transiently covered with medium during impedance measurement, which usually takes less than 30 seconds for a single bottom electrode. […]

C=C1[C@@H](O)[C@@H]2O[C@]3(CC[C@H](/C=C/[C@@H](C)[C@@H]4CC(C)=C[C@@]5(O[C@H](C[C@@](C)(O)C(=O)O)CC[C@H]5O)O4)O3)CC[C@H]2O[C@@H]1[C@@H](O)C[C@H](C)[C@H]1O[C@@]2(CCCCO2)CC[C@H]1C [ocadaic acid]
normalized impedance (normalized against non-covered membrane): 10%

From patent publication US10670576B2, “Device and method for measuring impedance in organotypic tissues” (Universität Leipzig, priority 2008, dated 2020)
